In US8623408B2, “Cladribine formulations for improved oral and transmucosal delivery” (Ares Trading S.A., priority 2003, dated 2014):
Where “and” joins values, the source holds several entries; their conditions need not be identical. Equal values may be shown once. Read-outs that look alike come from different tables or passages of the source.

Test: Bioavailability and pharmacokinetic studies in beagle dog model
Format: in vivo
Parameters: AUC/Dose: unit not given here
Settings: dogs; for AUC/Dose: dose in mg/kg; for concentration at 5 min: 5 mg/animal, read-out: Cfirst (first measured concentration at 5 minutes)
Description: The bioavailability of cladribine when complexed with γCD or HPβCD was evaluated in a beagle dog model.
Bioavailability and pharmacokinetic studies were conducted in a beagle dog model as follows.
Outbred male beagle dogs (identified as PM01-PM06) obtained from IDRI (Dunakeszi, Hungary) were allowed laboratory diet and water ad libitum. The same dogs were used throughout the study to minimize inter- and intrasubject variability. The bioavailability and pharmacokinetic studies were conducted as follows.
In the first test period, 5 mg cladribine (0.25 mg/ml in isotonic saline) was administered intravenously to test subjects. Blood samples were collected at various time intervals over 48 hours. In the second test period, half of the subjects received buccally a tablet as described above containing a saturated cladribine-γCD or -HPβCD complex. Serial blood samples were collected over 48 hours. The third test period repeated the second test period with the exception that the subjects previously receiving the γ-cyclodextrin buccal tablet were now given hydroxypropyl-β-cyclodextrin buccal tablets, with hydroxypropyl-β-cyclodextrin tablet recipients from the second period receiving γ-cyclodextrin buccal tablets. The fourth and fifth test periods repeated test periods two and three with the exception that the tablets were given orally.
Cladribine levels in the blood were measured by HPLC and an LC/MS/MS method. The TopFit 2.0 Pharmacokinetic and Pharmacodynamic Data Analysis System was used for the pharmacokinetic analysis of the data.
The peak areas, calibration curves, accuracy, precision values and the concentrations were determined using Analyst Software 1.1 (PE SCIEX, Foster City, US). For calculation of mean and standard deviation, Excel 5.0 software was used. The calibration curve was fitted using the ratio of concentrations of analyte and internal standard versus the ratio of the peak areas of them. A straight line was fitted on the experimental points by weighted least squares linear regression analysis. The weighting scheme used was 1/concentration squared as pg/ml plasma.
For calculation of mean, standard deviation and CV %, Excel 5.0 software was used. Lower levels than the limit of quantification were not accepted. Mean and S.D. values were calculated only for the concentrations measured after intravenous administration.
Pharmacokinetic analysis was performed on the basis of individual plasma concentration versus time curves. The mean and S.D. of parameters obtained from individual data were calculated. The linear-trapezoidal rule was used for calculation of the area under the plasma concentration time curve from 0 until the last measured concentration (AUD). Using the terminal regression line the area extrapolated to infinity (AUCt-∞) was calculated in the following way: AUCt-∞=ccalc/λz • where: Ccalc represents the estimated plasma concentration by the regression line at the last sampling time point with measured concentration above the limit of quantification, and λz represents the rate constant calculated from the regression line.
The points determining the regression line, i.e. the terminal phase, were selected by visual determination of the linear segment of the semilogarithmic curve. The total area under the curve (AUC) was calculated by adding together the partial areas: AUC=AUD+AUCt-∞. The AUC values were normalized by the actual dose given in the particular period. For calculation of the bioavailability, the buccal/oral AUC/dose value was divided by the intravenous AUC/dose value.

[1] = intravenous bolus, 5 mg cladribine/animal, Mean of 6 dogs
[2] = intravenous bolus, 5 mg cladribine/animal, individual dogs PM01-PM06

In the case of Nc1nc(Cl)nc2c1ncn2[C@H]1C[C@H](O)[C@@H](CO)O1 [cladribine, 2-chloro-2′-deoxyadenosine], the AUD [1] is reported as 377 ng·h/mL, the AUDext [1] is reported as 1.4% and the “Cinitial (extrapolated value at the end of the bolus)” value [1] is reported as 563 ng/mL. The MRTtot [1] was 1.3 h, the AUC/Dose [1] was 967 and the AUC/Dose [2] was 918 and 965 and 947 and 949 and 948 and 1077. For the same compound, the AUC [2] was 338 ng·h/mL and 366 ng·h/mL and 432 ng·h/mL and 342 ng·h/mL and 433 ng·h/mL, the AUD [2] was 379 ng · h/ml and 334 ng · h/ml and 359 ng · h/ml and 426 ng · h/ml (2×) and 337 ng · h/ml and the AUDext [2] was 1.4% (3×) and 1.0% and 1.9% and 1.5%. For the same compound, the “Cfirst (first measured concentration at 5 minutes)” value [2] was 306 ng/mL and 478 ng/mL and 560 ng/mL and 446 ng/mL and 605 ng/mL, the “Cinitial (extrapolated value at the end of the bolus)” value [2] was 569 ng/mL and 335 ng/mL and 567 ng/mL and 655 ng/mL and 525 ng/mL and 726 ng/mL and the Cltot [2] was 247 mL/min and 228 mL/min and 193 mL/min and 244 mL/min and 192 mL/min. The Cltot/kg [2] was 17.6 mL/min/kg and 15.4 mL/min/kg, the MRTtot [2] was 1.4 h and 1.5 h and 1.3 h (3×) and 1.2 h and the t½ terminal [2] was 11.3 h and 9.9 h and 10.4 h and 8.5 h and 10.7 h. The clearance (male, beagle, dog, plasma, iv, 5 mg, after intravenous administration, read-out: mean total clearance) was 17 mL/min/kg, the half-life (male, beagle, dog, plasma, iv, 5 mg, after intravenous administration, read-out: terminal elimination half-life (converted)) was about 10 h and the AUC (male, beagle, dog, plasma, iv, 5 mg, intravenous bolus, 5 mg cladribine/animal, Mean of 6 dogs, read-out: AUC) was 382 ng·h/mL. The clearance (male, beagle, dog, plasma, iv, 5 mg, intravenous bolus, 5 mg cladribine/animal, Mean of 6 dogs, read-out: Cltot) was 220 mL/min, the clearance (male, beagle, dog, plasma, iv, 5 mg, intravenous bolus, 5 mg cladribine/animal, Mean of 6 dogs, read-out: Cltot/kg) was 17.3 mL/min/kg and the half-life (male, beagle, dog, plasma, iv, 5 mg, intravenous bolus, 5 mg cladribine/animal, Mean of 6 dogs, read-out: t½ terminal (converted)) was 10.3 h. The AUC (male, beagle, dog, plasma, iv, 5 mg, intravenous bolus, 5 mg cladribine/animal, individual dogs PM01-PM06, read-out: AUC) was 383 ng·h/mL, the clearance (male, beagle, dog, plasma, iv, 5 mg, intravenous bolus, 5 mg cladribine/animal, individual dogs PM01-PM06, read-out: Cltot) was 217 mL/min and the clearance (male, beagle, dog, plasma, iv, 5 mg, intravenous bolus, 5 mg cladribine/animal, individual dogs PM01-PM06, read-out: Cltot/kg) was 18.1 mL/min/kg. It also gave a half-life (male, beagle, dog, plasma, iv, 5 mg, intravenous bolus, 5 mg cladribine/animal, individual dogs PM01-PM06, read-out: t½ terminal (converted)) of 11 h, a concentration at 5 min (male, beagle, dog, plasma, iv, intravenous bolus, 5 mg cladribine/animal, Mean of 6 dogs) of 479 ng/mL and a concentration at 5 min (male, beagle, dog, plasma, iv, intravenous bolus, 5 mg cladribine/animal, individual dogs PM01-PM06) of 477 ng/mL.
